Test results taken from US6465447B1, “Substance having steroid-like structure, process for the production thereof and antitumor agents containing the same” (Hisamitsu Pharmaceuticals Co., Inc., priority 1998, dated 2002).

Legend:
[1] = system: HeLa cells; test: DNA cleavage examined against HeLa cells (chromatin aggregation, agarose gel electrophoresis); format: cell-based, human; settings: conclusion from FIGS. 7-9
Protocol: HeLa cells were prepared, adjusted to a cell density of 1×10^6 cells/ml in a φ10 cm culture dish and grown, into which 200 μl of the active fraction solution was dropped. Cells were harvested each 50 μl after 24, 48, and 72 hrs, and incubated in 400 μl of culture solution (containing Tris-EDTA, SDS and Proteinase K) in a 5% CO2 atmosphere at 37° C. overnight. NaCl was added to the cells and decomposed proteins were centrifuged; and the supernatant was precipitated in ethanol.
The precipitate was suspended in Tris-EDTA buffer containing RnaseA. After 2 hrs, it was loaded onto agarose gel. After staining with ethidium bromide, it was electrophoresed and visualized under UV irradiation.

[2] = system: HeLa cells; test: Tumor cell proliferation inhibitory activity, Alarmer Blue staining, HeLa cells; format: cell-based, human; settings: conclusion from FIGS. 4-6 (Vero, HeLa, fibroblasts)
Protocol: Here, Vero was […] derived from the kidney of a grivet, and HeLa was a tumor cell line derived from human cervix.
These cells were grown in FCS-MRM medium. The respective cells were trypsinized and washed with a FCS-free RPMI culture medium three times. The cell density was adjusted to 50,000 cells/ml prior to the test. Each 200 μl of cell suspension was dropped into a 96-well plain-bottom plate.
After one day, the culture medium was aspirated; and 200 μl of an active component solution was dropped into test wells, and 200 μl of DMSO dropped into control wells. The plate was incubated in a 5% CO2 atmosphere at 37° C. for 3 days. Ten μl of Alarmer Blue (staining agent) was added to each well, and incubation continued for additional 3 hrs. The tumor cell proliferation inhibitory activity was determined spectrophotometrically (570 and 600 nm) according to the following equation:
Eq. Proliferation inhibitory activity=100%−[(absorbance of test well)/(absorbance of control well)×100%]

## CC(=O)OC1CC2(C)C(C(C)/C=C/C(C)C(C)C)CCC2(C)C2CC(O)C3(O)CC(O)CC(=O)C3(C)C12 (centres unmarked) [compound (II)]
[1]
  induction of apoptosis in the tumor cells: induces apotosis
[2]
  proliferation inhibitory activity specific to tumor cells (overall conclusion): remarkable proliferation inhibitory activity specific to tumor cells
